Data taken from US20080253960A1, “Lipoprotein-Based Nanoplatforms” (The Trustees of the University of Pennsylvania Center for …, priority 2004, published 2008).

Legend:
[1] = tested on: HepG2 tumor cells; assay: laser scanning confocal microscopy of r-(Pyro-CE)-LDL uptake; format: cell-based, human; conditions: 20 μg/mL r-(Pyro-CE)-LDL, or same amount of Pyro-CE without reconstitution into LDL
Description: To visualize LDLR-mediated internalization of these NIRF/PDT agents into tumor cells, we performed laser scanning confocal microscopy studies on r-(Pyro-CE)-LDL in HepG2 tumor cells. Four sets of experiments were performed on a Leica TCS SPII laser scanning confocal microscope (Heidelberg, Germany). […] In a control experiment, HepG2 cells were incubated with native LDL but without the photosensitizer at 37° C. for 3 h to determine any possible background fluorescence. […] To determine the specificity of this LDL based photosensitizer toward LDL receptors, HepG2 cells were incubated with either a 25-fold excess of unlabeled LDL in addition to the 20 μg/mL r-(Pyro-CE)-LDL or with the same amount of Pyro-CE but without reconstitution of this agent into LDL.

[2] = tested on: HepG2 tumor cells; assay: confocal microscopy of LDLR-specific uptake of r-SiPcBOA-LDL; format: cell-based, human; conditions: same amount of dye alone as in r-SiPcBOA-LDL
Description: Confocal Microscopy Studies: For confocal microscopy studies, HepG2 cells were grown in 4-well Lab-Tek chamber slides (Naperville, Ill.) at a density of 40,000 cells/well. Experiments were started, after two quick washes with pre-incubation medium (medium with 0.8% (w/v) BSA instead of FBS), by the addition of pre-incubation medium containing the indicated amounts of r-SiPcBOA-LDL/AcLDL and/or unlabeled LDL. After a 4 h incubation at 37° C., the cells were washed three times with ice-cold PBS and fixed for 15 minutes with 3% formaldehyde in PBS at room temperature. Then the chamber slides were mounted and sealed for confocal microscopy analysis. Confocal microscopy was performed with a Leica TCS SPII laser scanning confocal microscope (Heidelberg, Germany). Filter settings were 633 nm for excitation and 638-800 nm for emission. Confocal Microscopy Studies of the LDLR-Specific Uptake: To visualize LDLR-mediated internalization of r-SiPcBOA-LDL, we performed laser scanning confocal microscopy studies on HepG2 tumor cells. […] To determine the specificity of this r-SiPcBOA-LDL toward LDLR, three sets of control experiments were performed.

Row | Substance | fluorescence signal (confocal) [1] | fluorescence signal (confocal) [2]
1 | pyropheophorbide cholesterol oleate [Pyro-CE] | No fluorescence | –
2 | tetra-t-butyl silicon phthalocyanine bisoleate [(tBu)4SiPcBOA] | – | did not lead to any observable fluorescence
